According to paper PMC9603170, “Protein Kinase C Inhibitors Reduce SARS-CoV-2 Replication in Cultured Cells” (Microbiology Spectrum, 2022):
Read-outs that look alike come from different tables or passages of the source.

Tests used:
A549-ACE2 cells = test: CCK8 cell viability assay in A549-ACE2 cells; type: cell-based, human
Procedure: (§1) Cell viabilities were analyzed using cell counting kit 8 (CCK8) (catalog no. HY-K0301; MCE) according to the manufacturer’s instructions. Ten microliters of the CCK8 reagent was added to each well of a 96-well plate. After incubation at 37°C for 1 h, optical density (OD) values were measured at 450 nm using a BioTek instrument. The CC50 was calculated by nonlinear regression analysis.

[1] = test system: Zika virus (ZIKV) replicon; test: ZIKV replicon luciferase assay in BHK-21 cells; type: cell-based; details: both 6 and 24 h posttransfection
Procedure: FIG 4 PKC inhibitors play an antiviral role during the early stage of SARS-CoV-2 replication. (A to E) Effect of PKC inhibitors on protein translation. BHK-21 cells were pretreated with DMSO or the indicated inhibitors for 1 h, followed by transfection with SARS-CoV-2 replicon RNA, GFP- or Renilla luciferase-expressing plasmids, or ZIKV replicon RNA. Luciferase assays or Western blot assays were performed at the indicated hours after transfection. MW, molecular weight; RLU, relative luciferase units. (F) Effect of PKC inhibitors on 3CL^pro activity. The protein activities were determined using a 2019 nCoV M^pro/3CL^pro inhibitor screening kit. SARS-CoV-2 3CL^pro, the substrate, and the inhibitors were incubated at 37°C for 5 min, and […] were measured at 490 nm using a multimode plate reader. […] P values were calculated by ANOVA with Dunnett’s multiple-comparison test or unpaired, two-tailed Student’s t tests (*, P < 0.05; **, P < 0.01; ***, P < 0.001; ****, P < 0.0001; NS, not significant).
To test whether these inhibitors specifically block viral protein translation, we compared the expression levels of ectopically expressed green fluorescent protein (GFP) or Renilla luciferase in the absence and presence of the PKC inhibitor. At 24 h posttransfection, the GFP protein levels or relative Renilla luciferase activities were determined by a Western blot or luciferase assay. […]

wild-type SARS-CoV-2 [2] = test: Wild-type SARS-CoV-2 infection of A549-ACE2 cells, qRT-PCR of supernatant viral RNA; type: cell-based; details: 10 μM inhibitor, MOI 0.8, 24 h p.i.
BHK-21 cells = test: CCK8 cell viability assay in BHK-21 cells; type: cell-based, hamster; details: 24 h
Procedure: as §1

Huh7 cells = test: CCK8 cell viability assay in Huh7 cells; type: cell-based, human; details: human Huh7 cells; 24 h
Procedure: as §1

SARS-CoV-2 replicon [3] = test: microbe, parasite or virus in culture; type: cell-based; details: human Huh7 cells, read-out: IC50, SARS-CoV-2 replicon luciferase activity
SARS-CoV-2 pseudovirus = type: cell-based; details: pretreated 1 h, % of DMSO
wild-type SARS-CoV-2 [4] = type: cell-based; details: A549-ACE2; pretreated 1 h; MOI 0.8; 24 h p.i.; DMSO 20%
[5] = test system: GFP- or Renilla luciferase-expressing plasmids; type: cell-based, hamster; details: BHK-21, 24 h posttransfection; for GFP levels vs DMSO-treated cells: Western blot
SARS-CoV-2 replicon [6] = test: microbe, parasite or virus in culture; type: cell-based; details: for IC50: BHK-21 cells, read-out: IC50, SARS-CoV-2 replicon luciferase activity
SARS-CoV-2 3CL^pro = biological target: T1, SARS-CoV-2 3CL^pro (Severe acute respiratory syndrome coronavirus 2, UniProt P0DTD1); type: biochemical; details: 37°C, 5 min incubation
T1 construct: One microliter of SARS-CoV-2 3CL^pro reagent; purchased Beyotime P0312S

[7] = CCK8 cell viability assay in A549-ACE2 cells; type: cell-based, human; details: human
Procedure: as §1

[8] = CCK8 cell viability assay in BHK-21 cells; type: cell-based, hamster
Procedure: as §1

[9] = CCK8 cell viability assay in Huh7 cells; type: cell-based, human
Procedure: as §1

[10] = BHK-21 cells, read-out: CC50 (CCK8 cell viability)
[11] = BHK-21, pretreated 1 h, […], vs DMSO
[12] = Severe acute respiratory syndrome coronavirus 2, Huh-7, 24 h
[13] = Severe acute respiratory syndrome coronavirus 2, pretreated 1 h, […]
[14] = human Huh7 cells, 24 h, read-out: CC50 (CCK8 cell viability)

With COc1ccc2c(c1)c(C1=C(c3c[nH]c4ccccc34)C(=O)NC1=O)cn2CCCN(C)C [Go 6983] the CC50 (A549-ACE2 cells) was 50 µM, the “replication levels of the ZIKV replicon” value [1] was “barely affected” and the “viral RNA level in supernatant, fold lower than DMSO” value (wild-type SARS-CoV-2 [2]) was “about 12 fold”. The CC50 (BHK-21 cells; [10]) was 16.9 µM, the CC50 (Huh7 cells) was 24.9 µM and the IC50 (SARS-CoV-2 replicon [3]) was 0.361 µM. The “luciferase activity of pseudovirus relative to DMSO-treated cells (entry)” value (SARS-CoV-2 pseudovirus) was “about 35%”, the “percentage of N-positive cells” value (wild-type SARS-CoV-2 [4]) was 12% and the “Renilla luciferase activities vs DMSO-treated cells” value [5] was “comparable”. For the same compound, the “GFP levels vs DMSO-treated cells” value [5] was “comparable”, the “relative luciferase activity lower than that in DMSO-treated cells” value (SARS-CoV-2 replicon [6]) was “about 99%” and the “replicon luciferase activities at all tested time points vs DMSO” value (from here on “replicon luciferase activities … vs DMSO”) (SARS-CoV-2 replicon [6]) was “constantly lower”. It also gave an IC50 (SARS-CoV-2 replicon [6]; pretreated 1 h, […]) of 0.087 µM.

For CN(C)CCCn1cc(C2=C(c3c[nH]c4ccccc34)C(=O)NC2=O)c2ccccc21 [bisindolylmaleimide I], the CC50 (A549-ACE2 cells) was 50.9 µM, the “replication levels of the ZIKV replicon” value [1] was “barely affected” and the “viral RNA level in supernatant, fold lower than DMSO” value (wild-type SARS-CoV-2 [2]) was roughly 16 fold. It also gave a CC50 (BHK-21 cells; [10]) of 15.9 µM, a CC50 (Huh7 cells) of 30 µM and an IC50 (SARS-CoV-2 replicon [3]) of 0.413 µM. For the same compound, the “luciferase activity of pseudovirus relative to DMSO-treated cells (entry)” value (SARS-CoV-2 pseudovirus) was roughly 24%, the “percentage of N-positive cells” value (wild-type SARS-CoV-2 [4]) was 3% and the “Renilla luciferase activities vs DMSO-treated cells” value [5] was “comparable”. For the same compound, the “GFP levels vs DMSO-treated cells” value [5] was “comparable”, the “relative luciferase activity lower than that in DMSO-treated cells” value (SARS-CoV-2 replicon [6]) was roughly 96% and the “replicon luciferase activities … vs DMSO” value (SARS-CoV-2 replicon [6]) was “constantly lower”. The IC50 (SARS-CoV-2 replicon [6]; pretreated 1 h, […]) was 0.386 µM.

With O=c1c2ccccc2[se]n1-c1ccccc1 [ebselen] the “SARS-CoV-2 3CLpro protease activity” value (SARS-CoV-2 3CL^pro) was “dramatically reduced” and the “replicon luciferase activity at 6 h (protein translation / polyprotein cleavage)” value (SARS-CoV-2 replicon [6]; [11]) was “reduced”.

In the case of Cn1cc(C2=C(c3cn(C4CCN(Cc5ccccn5)CC4)c4ccccc34)C(=O)NC2=O)c2ccccc21 [enzastaurin], the CC50 [7] is reported as 80 µM, the “viral RNA level in supernatant, fold lower than DMSO” value (wild-type SARS-CoV-2 [2]) is reported as roughly 3 fold and the CC50 at 24 h ([8]; hamster, CC50 (CCK8 cell viability)) is reported as greater than 160 µM. The CC50 (BHK-21 cells; hamster) was 160 µM, the CC50 at 24 h ([9]; human) was 86.4 µM and the IC50 (SARS-CoV-2 replicon [3]; [12]) was 0.93 µM. The “luciferase activity of pseudovirus relative to DMSO-treated cells (entry)” value (SARS-CoV-2 pseudovirus) was roughly 42%, the “percentage of N-positive cells” value (wild-type SARS-CoV-2 [4]) was 12% and the “relative luciferase activity lower than that in DMSO-treated cells” value (SARS-CoV-2 replicon [6]) was roughly 92%. The “replicon luciferase activities … vs DMSO” value (SARS-CoV-2 replicon [6]) was “constantly lower” and the IC50 (SARS-CoV-2 replicon [6]; [13]) was 0.929 µM.

For CCC(CC)COC(=O)[C@H](C)N[P@](=O)(OC[C@H]1O[C@@](C#N)(c2ccc3c(N)ncnn23)[C@H](O)[C@@H]1O)Oc1ccccc1 [remdesivir], the “replicon luciferase activity at 6 h (protein translation / polyprotein cleavage)” value (SARS-CoV-2 replicon [6]; [11]) was “did not alter” and the “replicon luciferase activity at 24 h (RNA synthesis)” value (SARS-CoV-2 replicon [6]; [11]) was “significantly reduced”.

For CC(=O)c1c(O)c(C)c(O)c(Cc2c(O)c3c(c(C(=O)/C=C/c4ccccc4)c2O)OC(C)(C)C=C3)c1O [rottlerin], the CC50 at 24 h ([8]; hamster; BHK-21 cells; 24 h; read-out: CC50 (CCK8 cell viability)) was 1.43 µM, the CC50 at 24 h [9, 14] was 4.46 µM and the IC50 (SARS-CoV-2 replicon [3]; [12]) was 0.33 µM. For the same compound, the IC50 (SARS-CoV-2 replicon [6]; [13]) was 0.479 µM.

For CN1CCN(c2nc(C3=C(c4c[nH]c5ccccc45)C(=O)NC3=O)c3ccccc3n2)CC1 [sotrastaurin], the CC50 at 24 h ([8]; hamster, BHK-21 cells; 24 h; read-out: CC50 (CCK8 cell viability)) was 82.2 µM, the CC50 at 24 h [9, 14] was 50.8 µM and the IC50 (SARS-CoV-2 replicon [3]; [12]) was 1.9 µM. For the same compound, the “luciferase activity of pseudovirus relative to DMSO-treated cells (entry)” value (SARS-CoV-2 pseudovirus) was roughly 55%, the “relative luciferase activity lower than that in DMSO-treated cells” value (SARS-CoV-2 replicon [6]) was roughly 89% and the “replicon luciferase activities … vs DMSO” value (SARS-CoV-2 replicon [6]) was “constantly lower”. It also gave an IC50 (SARS-CoV-2 replicon [6]; [13]) of 2.67 µM.
